Laboratory results as given in patent publication US20230143612A1 (Arbutus Biopharma Corporation, priority 2020, published 2023).
pIC50: −log10 of the molar value.

Target: PD-L1 His protein / PD-1 Fc protein (Homo sapiens, UniProt Q9NZQ7)
Experiment: HTRF Assay (PD-1/PD-L1 interaction)
Assay type: binding
Conditions: PD-L1 His 6 nM, PD-1 Fc 6 nM
Protocol: PD-L1 His protein was prepared and added at the final concentration of 6 nM in the White opaque 384 well plate (Corning cat #3824BC). PD-L1 small molecule inhibitors were diluted by 3-fold starting from 20 μM and a final concentration of 0.001 μM and added to the well. PD-1 Fc protein was added at the final concentration of 6 nM. PD-L1 His protein, PD-L1 small molecule inhibitors, and PD1 Fc proteins were added to the well in this order, with each 5 μl volume, and were incubated for 15 minutes at room temperature. PAb anti-Human IgG-XL665 (Cisbio, cat #61HFCXLA) and Mab anti-6HIS Tb cryptate Gold (Cisbio, cat #61HI2TLA) were mixed at 6.7 nM and 0.35 nM respectively, and total 5 μl volume of mixture was added to the well and incubated at room temperature for 1 hour. The plate was read using PerkinElmer Envision plate reader and data was analyzed by Prism 6 software.

PD-L1 His protein / PD-1 Fc protein, sequence (Q9NZQ7 19-238 limits assumed): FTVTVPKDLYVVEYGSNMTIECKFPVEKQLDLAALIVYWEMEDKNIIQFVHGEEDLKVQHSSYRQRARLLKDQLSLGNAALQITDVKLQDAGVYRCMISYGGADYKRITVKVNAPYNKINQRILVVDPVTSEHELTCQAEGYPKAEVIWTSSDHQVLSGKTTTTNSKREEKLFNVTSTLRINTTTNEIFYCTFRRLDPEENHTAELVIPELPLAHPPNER

SMILES | pIC50
COc1nc(-c2cccc(-c3cccc(-c4ccc5c(OC)c(CNC[C@@H]6CCC(=O)N6)cc(Cl)c5n4)c3Cl)c2Cl)ccc1CNC[C@@H]1CCC(=O)N1 [Example 194, (S)-5-((((8-Chloro-2-(2,2′-dichloro-3′-(6-methoxy-5-(((((S)-5-oxopyrrolidin-2-yl)methyl)amino)methyl)pyridin-2-yl)-[1,1′-biphenyl]-3-yl)-5-methoxyquinolin-6-yl)methyl)amino)methyl)pyrrolidin-2-one] | 7.59
CNc1nc(-c2cccc(-c3cccc(-c4ccn5c(=O)c(CNC[C@@H]6CCC(=O)N6)cnc5c4)c3C)c2Cl)ccc1CNC[C@@H]1CCC(=O)N1 [Example 73, 8-(2′-Chloro-2-methyl-3′-(6-(methylamino)-5-(((((S)-5-oxopyrrolidin-2-yl)methyl)amino)methyl)pyridin-2-yl)-[1,1′-biphenyl]-3-yl)-3-(((((S)-5-oxopyrrolidin-2-yl)methyl)amino)methyl)-4H-pyrido[1,2-a]pyrimidin-4-one] | 8.20
COc1nc(-c2cccc(-c3cccc(-c4ccc5c(CNC6CCN(C(C)=O)CC6)cn(C)c5n4)c3Cl)c2Cl)ccc1CNC[C@@H]1CCC(=O)N1 [Example 415, (5S)-5-[[[6-[3-[3-[3-[[(1-Acetyl-4-piperidyl)amino]methyl]-1-methyl-pyrrolo[2,3-b]pyridin-6-yl]-2-chloro-phenyl]-2-chloro-phenyl]-2-methoxy-3-pyridyl]methylamino]methyl]pyrrolidin-2-one] | 6.66
COc1nc(-c2cccc(-c3cccc(-c4cc(=O)n5cc(CNC[C@@H]6CCC(=O)N6)ccc5n4)c3Cl)c2Cl)cnc1CNC[C@@H]1CCC(=O)N1 [Example 58, 2-(2,2′-Dichloro-3′-(6-methoxy-5-(((((S)-5-oxopyrrolidin-2-yl)methyl)amino)methyl)pyrazin-2-yl)-[1,1′-biphenyl]-3-yl)-7-(((((S)-5-oxopyrrolidin-2-yl)methyl)amino)methyl)-4H-pyrido[1,2-a]pyrimidin-4-one] | 8.66
COc1nc(-c2cccc(-c3cccc(-c4ccc5c(CNCCN6CCCC6=O)cn(C)c5n4)c3Cl)c2Cl)ccc1CNC[C@@H]1CCC(=O)N1 [Example 414, 1-[2-[[6-[2-Chloro-3-[2-chloro-3-[6-methoxy-5-[[[(2S)-5-oxopyrrolidin-2-yl]methylamino]methyl]-2-pyridyl]phenyl]phenyl]-1-methyl-pyrrolo[2,3-b]pyridin-3-yl]methylamino]ethyl]pyrrolidin-2-one] | 6.77
Cc1c(NC(=O)c2ccc(CNCCO)cn2)cccc1-c1cccc(-c2ccn3c(=O)c(CNCCO)cnc3c2)c1 [Example 2, 5-(((2-Hydroxyethyl)amino)methyl)-N-(3′-(3-(((2-hydroxyethyl)amino)methyl)-4-oxo-4H-pyrido[1,2-a]pyrimidin-8-yl)-2-methyl-[1,1′-biphenyl]-3-yl)picolinamide] | 7.10
Cc1c(-c2ccn3c(=O)c(CNC4CNC(=O)C4)cnc3c2)cccc1-c1cccc(-c2ccc(CNC[C@@H]3CCC(=O)N3)c(F)n2)c1Cl (stereo partly drawn) [Example 62, 8-(2′-Chloro-3′-(6-fluoro-5-(((((S)-5-oxopyrrolidin-2-yl)methyl)amino)methyl)pyridin-2-yl)-2-methyl-[1,1′-biphenyl]-3-yl)-3-(((5-oxopyrrolidin-3-yl)amino)methyl)-4H-pyrido[1,2-a]pyrimidin-4-one] | 7.72
COc1nc(-c2cccc(-c3cccc(-c4cc5ncc(CNC[C@H](C)O)cc5cn4)c3Cl)c2Cl)ccc1CNC[C@@H]1CCC(=O)N1 [Example 333, (S)-5-((((6-(2,2′-Dichloro-3′-(3-((((S)-2-hydroxypropyl)amino)methyl)-1,6-naphthyridin-7-yl)-[1,1′-biphenyl]-3-yl)-2-methoxypyridin-3-yl)methyl)amino)methyl)pyrrolidin-2-one] | 9.15
COc1nc(-c2cccc(-c3cccc(-c4ccn5c(=O)c(CNC[C@@H]6CCC(=O)N6)cnc5c4)c3Cl)c2Cl)ccc1CN1CC[C@H](O)C1 [Example 175, 8-(2,2′-Dichloro-3′-(5-(((S)-3-hydroxypyrrolidin-1-yl)methyl)-6-methoxypyridin-2-yl)-[1,1′-biphenyl]-3-yl)-3-(((((S)-5-oxopyrrolidin-2-yl)methyl)amino)methyl)-4H-pyrido[1,2-a]pyrimidin-4-one] | 10.00
COc1nc(-c2cccc(-c3cccc(-c4ccn5c(=O)c(CNC[C@@H](O)CC(N)=O)cnc5c4)c3Cl)c2Cl)ccc1CNC[C@@H]1CCC(=O)N1 [Example 238, (3S)-4-[[8-[2-chloro-3-[2-chloro-3-[6-methoxy-5-[[[(2S)-5-oxopyrrolidin-2-yl]methylamino]methyl]-2-pyridyl]phenyl]phenyl]-4-oxo-pyrido[1,2-a]pyrimidin-3-yl]methylamino]-3-hydroxy-butanamide] | 10.00
COc1nc(-c2cccc(-c3cccc(-c4ccn5c(=O)c(CN[C@H]6CCOC[C@@H]6O)cnc5c4)c3Cl)c2Cl)ccc1CNC[C@@H]1CCC(=O)N1 [Example 163] | 9.10
COc1cc(-c2cccc(-c3cccc(-c4ccc(CNC[C@@H]5CCC(=O)N5)c(OC)n4)c3Cl)c2Cl)cc2c1CN(C[C@@H](C)O)CC2 [Example 419, (S)-5-((((6-(2,2′-Dichloro-3′-(2-((R)-2-hydroxypropyl)-8-methoxy-1,2,3,4-tetrahydroisoquinolin-6-yl)-[1,1′-biphenyl]-3-yl)-2-methoxypyridin-3-yl)methyl)amino)methyl)pyrrolidin-2-one] | 7.59
COc1ccc(CNCc2cnc3cc(-c4cccc(-c5cccc(-c6ccc(CNC[C@@H]7CCC(=O)N7)c(OC)n6)c5Cl)c4Cl)ccn3c2=O)c(OC)c1 [Example 138, (S)-8-(2,2′-Dichloro-3′-(6-methoxy-5-((((5-oxopyrrolidin-2-yl)methyl)amino)methyl)pyridin-2-yl)-[1,1′-biphenyl]-3-yl)-3-(((2,4-dimethoxybenzyl)amino)methyl)-4H-pyrido[1,2-a]pyrimidin-4-one] | 8.85
COc1nc(-c2cccc(-c3cccc(-c4ccn5c(=O)c(CNC[C@@H]6CCC(=O)N6)c(OC)nc5c4)c3Cl)c2Cl)ccc1CNC[C@@H]1CCC(=O)N1 [Example 201, 8-(2,2′-Dichloro-3′-(6-methoxy-5-(((((S)-5-oxopyrrolidin-2-yl)methyl)amino)methyl)pyridin-2-yl)-[1,1′-biphenyl]-3-yl)-2-methoxy-3-(((((S)-5-oxopyrrolidin-2-yl)methyl)amino)methyl)-4H-pyrido[1,2-a]pyrimidin-4-one] | 7.00
COc1nc(-c2cccc(-c3cccc(-c4ccc5nc(C(=O)NCCc6c[nH]cn6)cn5n4)c3Cl)c2Cl)ccc1CNC[C@@H]1CCC(=O)N1 [Example 440, 6-[2-Chloro-3-[2-chloro-3-[6-methoxy-5-[[[(2S)-5-oxopyrrolidin-2-yl]methylamino]methyl]-2-pyridyl]phenyl]phenyl]-N-[2-(1H-imidazol-4-yl)ethyl]imidazo[1,2-b]pyridazine-2-carboxamide] | 7.57
COC(=O)C1CN(Cc2cnc3cc(-c4cccc(-c5cccc(-c6ccc(CNC[C@@H]7CCC(=O)N7)c(OC)n6)c5Cl)c4Cl)ncc3c2)C1 [Example 304, (S)-Methyl 1-((7-(2,2′-dichloro-3′-(6-methoxy-5-((((5-oxopyrrolidin-2-yl)methyl)amino)methyl)pyridin-2-yl)-[1,1′-biphenyl]-3-yl)-1,6-naphthyridin-3-yl)methyl)azetidine-3-carboxylate] | 9.70
Cc1c(COc2cc(OCc3cncc(C#N)c3)c(CN3CC[C@H](C(=O)O)C3)cc2Cl)cccc1-c1cccc(-c2ccc3c(c2)C(=O)N(C)CC(=O)N3CCN2CC[C@H](C(=O)O)C2)c1C [Example 30, (S)-1-(4-((3′-(1-(2-((S)-3-Carboxypyrrolidin-1-yl)ethyl)-4-methyl-2,5-dioxo-2,3,4,5-tetrahydro-1H-benzo[e][1,4]diazepin-7-yl)-2,2′-dimethyl-[1,1′-biphenyl]-3-yl)methoxy)-5-chloro-2-((5-cyanopyridin-3-yl)methoxy)benzyl)pyrrolidine-3-carboxylic acid] | 9.52
Cc1c(COc2cc(OCc3cncc(C#N)c3)c(CNCCO)cc2Cl)cccc1-c1cccc(-c2ccn3c(=O)c(CNCCO)cnc3c2)c1C [Example 3, 5-((4-Chloro-2-(((2-hydroxyethyl)amino)methyl)-5-((3′-(3-(((2-hydroxyethyl)amino)methyl)-4-oxo-4H-pyrido[1,2-a]pyrimidin-8-yl)-2,2′-dimethyl-[1,1′-biphenyl]-3-yl)methoxy)phenoxy)methyl)nicotinonitrile] | 8.92
COc1cc(-c2cccc(-c3cccc(-c4ccn5c(=O)c(CNC[C@@H]6CCC(=O)N6)cnc5c4)c3C)c2Cl)ncc1CNC[C@@H]1CCC(=O)N1 [Example 77, 8-[3-[2-Chloro-3-[4-methoxy-5-[[[(2S)-5-oxopyrrolidin-2-yl]methylamino]methyl]-2-pyridyl]phenyl]-2-methyl-phenyl]-3-[[[(2S)-5-oxopyrrolidin-2-yl]methylamino]methyl]pyrido[1,2-a]pyrimidin-4-one] | 8.20
COc1nc(-c2cccc(-c3cccc(-c4ccc5c(Cl)c(CNC[C@@H]6CCC(=O)N6)[nH]c5n4)c3Cl)c2Cl)ccc1CNC[C@@H]1CCC(=O)N1 [Example 386, (S)-5-((((3-Chloro-6-(2,2′-dichloro-3′-(6-methoxy-5-(((((S)-5-oxopyrrolidin-2-yl)methyl)-amino)methyl)-pyridin-2-yl)-[1,1′-biphenyl]-3-yl)-1H-pyrrolo[2,3-b]-pyridin-2-yl)methyl)-amino)methyl)-pyrrolidin-2-one] | 7.55
